From patent publication US8076308B2, “Inhibition of autophagy genes in cancer chemotherapy” (British Columbia Cancer Agency, priority 2005, dated 2011)
Read-outs that look alike come from different tables or passages of the source.

Assays:
MCF-7 cells = test: Detection of autophagy in tamoxifen treated MCF-7 cells (MDC, LC3-GFP, TEM); format: cell-based, human
From the text: Assays for autophagy and cell viability: We used flow cytometry based methods and microscopy to analyze autophagy levels. Cells were stained with MDC and LT-G and first analyzed manually by fluorescence microscopy and then by flow cytometry using a BD® flow cytometer (FACSVANTAGE™ SE, BD, TFL FACS Facility, BCCRC). […] To confirm that these two populations represent a functional difference in autophagy levels, RNA and protein from these FACS sorted cell were subjected to QRT-PCR for the MAP1LC3b gene, a commonly accepted marker for autophagy (16). In addition, the two populations were analyzed by Transmission Electron Microscopy (TEM) for the presence of autophagosomes (9).
FIG. 8. […] B. MCF-7 cells treated with 10^-6 M tamoxifen. In panels A, B, & D, cells are stained with the autolysosomal marker, MDC, detected as punctate staining (e.g. arrows in B).
In panels C and D, autophagy is detected by LC3-GFP localization. C. Punctate GFP-LC3 in transient transfected MCF7 cells treated with TAM. […] In panel E-H, TEM analyses indicate that autolysosomes are abundant in tamoxifen treated MCF7 cell sorted MDC (+) populations but not untreated MCF7 cells. Representative image of an untreated MCF7 cell is shown in (E) with a magnified view of the same cell in (G). Panels (F) and (H) show a cell treated with 5 uM tamoxifen (72 hrs).

[1] = tested on: MCF7 human breast carcinoma cells; conditions: literature (9), cited from earlier work
[2] = tested on: FM3A murine breast tumour cells; conditions: literature (10); cited from earlier work

Compound: CC/C(=C(\c1ccccc1)c1ccc(OCCN(C)C)cc1)c1ccccc1 [Tamoxifen]
- Autolysosomes by TEM (MCF-7 cells; MCF7 cell treated with 5 uM tamoxifen (72 hrs), versus untreated): Numerous autolysosomes
- Induction of autophagy (MDC punctate staining, LC3-GFP localization) (MCF-7 cells; MCF-7 cells, 10^-6 M tamoxifen): induces autophagy
- Induction of autophagy ([1]; listed as tamoxifen): undergo autophagy
- Induction of autophagy [1]: induce autophagy
- Induction of autophagy [2]: induce autophagy
